This note sets out measurements from patent US8389792B2, “Compositions and methods for the treatment and prevention of ulcerative colitis and colon cancer and screening methods to identify same” (Cornell University, priority 2007, dated 2013).

For test [1], the system named is T-bet−/−×RAG2−/− (TRUC) mice. Kind of test: Histologic colitis scoring of colons from treated TRUC mice. It counts as in vivo, mouse. The following applies: for TRUC colitis (histologic colitis scores, in vivo antibiotic sensitivity): TRUC mice treated four weeks with single antibiotic in drinking water. From the text: For studies of the progeny of antibiotic treated animals, progeny were weaned at 21 days and examined six weeks after weaning. These animals had no exposure to antibiotics after weaning.
Colons were removed from euthanized mice and dissected free from the anus to distal to the cecum. Colonic contents were removed and colons were cleaned with phosphate buffer saline or Hanks' balanced salt solution prior to fixation in 4% PFA or 10% neutral buffered formalin (NBF) followed by routine paraffin embedding. After paraffin embedding, […] sections were cut and stained with hematoxylin and eosin or as noted.
Sections were examined and the degree of colitis was blindly scored. Each of four histologic parameters were scored as absent (0), mild (1), moderate (2), or severe (3): mononuclear cell infiltraton, polymorphonuclear cell infiltration, epithelial hyperplasia, and epithelial injury, similar to previous studies (Neurath et al., 2002b). Colons from dextran sodium sulfate treated mice were scored using the following parameters scored on a scale of 0-4: percentage of colon involved by inflammation, percentage of crypt loss, presence of lymphoid follicles, edema, erosions, and density of inflammatory cells. The scores for the individual parameters were summed to give a total severity score. […]
Mice were treated as described previously (Fagarasan, S., et al. (2002). Science 298, 1424-1427; Rakoff-Nahoum, S., et al. (2004). Cell 118, 229-241). Alterations are as noted: in brief, animals were provided ampicillin (1 g/L; Roche), vancomycin (1 gm/L; Henry Schein, Inc. (Hospira, Inc.)), neomycin sulfate (1 g/L; Sigma (Teva Pharmaceuticals)), and metronidazole (1 g/L; Sigma) dissolved in their autoclaved drinking water and their fluid intake was monitored. […]
Mice were treated with the following antibiotics dissolved in their autoclaved drinking water as indicated: ampicillin (1 g/L; Roche), vancomycin (500 mg/L; Sigma), neomycin sulfate (1 g/L; Sigma), metronidazole (1 g/L; Sigma, solubilized with 15 ml of 0.1N acetic acid/L), and gentamicin (2 g/L; Cell Gro); and fluid intake monitored. […]

For test [2], the system named is Klebsiella pneumoniae. Kind of test: Quantitative fecal culture of Gram-negative aerobes on MacConkey's medium. Format: in vivo. Conditions: for fecal levels of K. pneumoniae after antibiotic: 4-week old TRUC mice, feces cultured 1d before and 1d after antibiotic, limit of detection 4.4 log10 CFU/g. Here is the method: (§1) Individual mice were placed in autoclaved plastic cages. Fecal pellets were transferred immediately upon expulsion into capped microfuge tubes. 4-6 pellets were collected per mouse per time point. All Rag2^−/− mice in FIG. 2F were sampled twice over a 3d period for each weekly time point. Pellets were resuspended in sterile PBS and 10-fold serial dilutions were generated, plated on MacConkey's medium, and incubated in ambient air at 37° C. overnight. Biochemical assays with the API-20E panel (bioMerieux) confirmed that colony morphology correlated with Klebsiella pneumoniae, Proteus mirabilis, or E. coli: therefore, these organisms were subsequently identified based on their colony morphotypes.
(§2) The lower limit of detection for these studies was 10^4.4 cfu/gram fecal dry weight. A minimum of 30 colonies or a maximum of 300 colonies was counted at a given dilution and the serial dilution had to appropriately reflect the colony counts for the quantitative counts to pass our quality control standards.
(§3) Mice were treated with the following antibiotics dissolved in their autoclaved drinking water as indicated: ampicillin (1 g/L; Roche), vancomycin (500 mg/L; Sigma), neomycin sulfate (1 g/L; Sigma), metronidazole (1 g/L; Sigma, solubilized with 15 ml of 0.1N acetic acid/L), and gentamicin (2 g/L; Cell Gro); and fluid intake monitored.
(§4) Dextran sulfate sodium (M.W. 40-50,000; USB Cat# 14489) was dissolved in drinking water at a final concentration of 4% (w/v) and provided for 7d.
(§5) anti-TNF-α (clone TN3-19.12), a hamster anti-mouse TNF-α neutralizing IgGl antibody and control Ab (hamster anti-GST IgGl) were purchased from Leinco Technologies. Mice were injected with these reagents (15 mg/kg) on a weekly basis for four weeks (Garrett et al., 2007).
(§6) Peripheral lymph nodes were harvested and cell suspensions were generated as previously described. Fluorescence activated cell sorted C114^+CD62L^h,CD25^+ cells were collected and resuspended in PBS. 75,000 cells were injected per mouse. An equivalent amount of PBS was injected in the control group. 10 mice were injected with T-regulatory cells and nine mice with PBS. All mice were 4 weeks of age at the time of injection (Garrett et al., 2007). This experiment was stopped when the mice were 12 weeks old (as opposed to 14 weeks of age in the TNF-a blockade experiment), because two mice in the control group became quite moribund from their colitis, and euthanasia was indicated as per our animal protocol.

In test [3] the test system is Proteus mirabilis. The description is as above. It counts as in vivo. Conditions: for fecal levels of P. mirabilis after antibiotic: 4-week old TRUC mice, feces cultured 1d before and 1d after antibiotic, limit of detection 4.4 log10 CFU/g. The method, then:
as §1, §2, §3, §4, §5, §6

Test [4] relates to Klebsiella pneumoniae. Kind of test: TNF-α bacterial co-culture (growth kinetics). It counts as cell-based. Conditions: in vitro mono-culture, 6 h, colony counts at 2 h intervals. Here is the method:
(§7) TNF-a (final concentration 100u,g/mL culture medium), or PBS alone, was added to cultures of the designated microbes and bacterial concentrations (efu/ml) were followed during a 6 h incubation (37° C. with agitation in ambient air) at 2 h intervals. Bacteria were cultured in Luria Broth and plated on MacConkey's medium.

The subject of test [5] is Proteus mirabilis. Kind of test: TNF-α bacterial co-culture (growth kinetics). It counts as cell-based. Conditions: in vitro mono-culture, 6 h, colony counts at 2 h intervals. Here is the method: as §7
Setting [6] is: 8 week-old WT and Rag2−/− mice, 4% in drinking water one week, samples before and 1d after.

Entries after “also recorded” stand apart in the source; their conditions may differ.

For the molecule `CN[C@H](CC(C)C)C(=O)N[C@H]1C(=O)N[C@@H](CC(N)=O)C(=O)N[C@H]2C(=O)N[C@H]3C(=O)N[C@H](C(=O)N[C@H](C(=O)O)c4cc(O)cc(O)c4-c4cc3ccc4O)[C@H](O)c3ccc(c(Cl)c3)Oc3cc2cc(c3O[C@@H]2O[C@H](CO)[C@@H](O)[C@H](O)[C@H]2O[C@H]2C[C@](C)(N)[C@H](O)[C@H](C)O2)Oc2ccc(cc2Cl)[C@H]1O` [vancomycin], the “TRUC colitis (histologic colitis scores, in vivo antibiotic sensitivity)” value in test [1] is on record as “does not; also recorded: neither abolished colitis”.

As to gentamicin, the “fecal levels of K. pneumoniae after antibiotic” value in test [2] was “below our limit of detection”. The “fecal levels of P. mirabilis after antibiotic” value in test [3] is given as “below our limit of detection”. Besides, in test [1], the “TRUC colitis (histologic colitis scores, in vivo antibiotic sensitivity)” value was “able to ameliorate and cure TRUC”.

As for `Cc1ncc([N+](=O)[O-])n1CCO` [metronidazole], in test [2], the “fecal levels of K. pneumoniae after antibiotic” value is recorded as “below our limit of detection”. In addition, the “fecal levels of P. mirabilis after antibiotic” value in test [3] is “below our limit of detection”. In test [1] (six week old TRUC mice, antibiotics 1 g/L each in drinking water for six weeks), the “TRUC colitis (histologic scores)” value is recorded as “cured the colitis”.

Regarding Dextran sulfate sodium, the “culturable K. pneumoniae in fecal microbiota after dextran sulfate sodium” value in test [2] (setting [6]) is given as “did not detect”. For the same molecule, the “culturable P. mirabilis in fecal microbiota after dextran sulfate sodium” value in test [3] (setting [6]) was “did not detect”.

For TNF-a, the “growth kinetics of K. pneumoniae in vitro” value in test [4] is reported as “did not affect the growth kinetics”. Moreover, in test [5], the “growth kinetics of P. mirabilis in vitro” value is recorded as “did not affect the growth kinetics”.
